Laboratory results as given in article PMC9146423, “Discovery of Nitro-azolo[1,5-a]pyrimidines with Anti-Inflammatory and Protective Activity against LPS-Induced Acute Lung Injury” (Pharmaceuticals, 2022).

Tests used:
C57BL/6J mice = assay: LPS-induced acute lung injury in mice; type: in vivo, mouse
Procedure: The randomization of C57bl/6j mice into experimental and control groups was based on body weight and behavioral activity assessed in an open field test 24 h before the start of the experiment. The next day, mice were treated with vehicle or test compounds 1 h before intratracheal instillation of LPS solution in sterile saline.
The randomization of C57BL/6J mice was performed by body weight and motor activity in an open field test. Dexamethasone (5 mg/kg) and 9g (30 mg/kg) were administered intraperitoneally in 10 mL/kg sterile saline. The control animals received an equal volume of the vehicle. After 1 h, the mice were anesthetized with isoflurane inhalation until their breathing rate was decreased. The mice were suspended by the front incisors on an inclined surgical table, the tongue was pulled out with narrow curved tweezers, and 1 mg/mL of E. coli O127:B8 LPS (Sigma-Aldrich, St. Louis, MO, USA) in 1 mL/kg sterile saline was injected into the back of the oropharynx. Intact control animals received an equal volume of sterile saline similarly.
The animals were placed in the center of a round open field with an arena of 44 cm diameter and 32 cm wall height under 300 lux lighting. During 5 min of observation, horizontal motor activity, vertical motor activity, time spent in the central part, the number of exits to the central part, and exploratory activity parameters were recorded. Body temperature was determined rectally.
The mice were anesthetized with 500 mg/kg chloral hydrate (Sigma-Aldrich, St. Louis, MO, USA) intraperitoneally 24 h after LPS administration. Blood was taken by intracardiac puncture in test tubes with heparin. The blood samples were centrifuged at 1000 g and 4 °C for 15 min on a 2–16PK centrifuge (Sigma, Germany), and plasma was separated and stored at −80 °C until the assay. Thoracotomy was performed, the ligature was applied to the left bronchus and the trachea was cannulated with a 20 G needle. The right lung was washed twice with 0.7 mL of warm sterile saline. After combining aliquots, the bronchoalveolar lavage (BAL) was centrifuged at 800 g and 4 °C for 10 min. The supernatant was separated and stored at −80 °C until the assay. The residual cell pellet was resuspended in 50 μL of PBS for further study. The left lung was washed in saline and placed in 10% buffered formalin for morphological evaluation.
The total number of leukocytes in heparinized blood was determined after staining with methylene blue in Goryaev’s counting chamber at ×100 magnification. Smears of blood and BAL cell pellets were air-dried, fixed according to May–Grunwald for 3 min, and stained according to Romanowsky–Giemsa. After 30 min, the slides were washed, air-dried, and examined with immersion objective (×1000 total magnification). On each slide, a total of at least 100 cells were calculated.
The concentration of total protein in BAL supernatants was determined spectrophotometrically with the pyrogallol red method, and the protein in the blood plasma was determined with the biuret method using commercial kits (Vital, Saint Petersburg, Russia) and bovine serum albumin as the standard. The lung permeability index was calculated as the protein concentration in the BAL to plasma ratio.
Morphological markers of inflammation in lung tissue were assessed in a semi-quantitative way on paraffin sections stained with hematoxylin and eosin. The sections were examined under a light microscope (Zeiss, Germany) by a double-blind method. The score of inflammation was determined as follows: 0—the presence of single inflammatory cells; 1—weak inflammation, inflammatory cells infiltrate no more than 10% of the lung tissue, including interalveolar cell partitions; 2—moderate inflammation, inflammatory cells infiltrate no more than 50% of the structures of the lung, but the interstitial tissue is identified; 3—severe inflammation, inflammatory cells densely infiltrate more than 50% of the lung tissue and airways.

[1] = system: peritoneal macrophages of C57bl/6j mice; assay: Yeast phagocytosis assay and macrophage spreading; type: cell-based, mouse
Procedure: Next, we evaluated lead compound 9g for immunodepressant activity in parallel with the reference drug dexamethasone. Yeast phagocytosis was assessed by microscopic examination as the number of phagocytes per 100 macrophages and as the number of phagocytosed yeast cells in each phagocyte. Cell viability was assessed as lactate dehydrogenase activity in cell supernatants, which correlates with increased cell membrane permeability.
Peritoneal macrophages of C57bl/6j mice were cultured in a 24-well plate at a volume of 500 μL/well (1 × 10^5 cells/mL) for 24 h. Test compounds or DMSO were added to wells in triplicate followed by 50 μL of 1% yeast suspension, and the plates were incubated for 40 min. After 24 or 72 h, the medium was removed. The cells were fixed with May–Grunwald methanol dye and stained with Azur-Eosin in Romanovsky’s modification for 45 min at room temperature, washed, air-dried, and analyzed using a microscope Mikmed-6 (Russia), equipped with a digital camera. The study was performed in three technical replicates and two series; 100 macrophages were processed in each sample to count the captured yeast cells. Macrophage spreading was assessed as a number of pseudopodia.

[2] = 24 h after LPS, dexamethasone 5 mg/kg, 9g 30 mg/kg i.p.

For `Cc1nc2nnnn2c(NCCc2ccc(O)cc2)c1[N+](=O)[O-]` [Compound 9g, N-[2-(4-Hydroxyphenyl)ethyl]-5-methyl-6-nitrotetrazolo-[1,5-a]pyrimidin-7-amine], the Blood leukocyte subpopulations (C57BL/6J mice; 24 h after LPS) was “normalized leukocyte subpopulations to the values of intact animals”, the “CD68+ cells in lung tissue, immunostaining” value (C57BL/6J mice; 24 h after LPS) was “decreased the immunoreactivity of the lung tissue” and the “LPS-induced lung lesions, histologic scoring (hemorrhage and neutrophil infiltration)” value (C57BL/6J mice; 24 h after LPS, H&E, semi-quantitative) was “significantly ameliorated”. The “Blood plasma IL-6 level” value (C57BL/6J mice; [2]) was “normalized the blood plasma IL-6 level”, the “Permeability of pulmonary vessels (lung permeability index)” value (C57BL/6J mice; [2]) was “prevent the increase in permeability of pulmonary vessels” and the “Horizontal motor activity, open field test” value (C57BL/6J mice; 24 h after LPS, dexamethasone 5 mg/kg, 9g 30 mg/kg i.p. 1 h before LPS) was “restored motor activity of animals comparably to dexamethasone”. For the same molecule, the “Segmented neutrophils count in BAL (in words)” value (C57BL/6J mice; 24 h after LPS, monocytes in BAL increased) was “significantly decreased the segmented neutrophils count”, the “Spleen mass and lymphocyte content (markers of immunodepression)” value (C57BL/6J mice; LPS-treated mice, dexamethasone 5 mg/kg, 9g 30 mg/kg i.p.) was “nonsignificant” and the LPS-induced hypothermia (C57BL/6J mice; body temperature determined rectally) was “attenuated LPS-induced hypothermia”. The “Segmented neutrophils, share of BAL cells” value (C57BL/6J mice; bronchoalveolar lavage 24 h after LPS, dexamethasone 5 mg/kg, 9g 30 mg/kg i.p.) was 37.6%, the “Number of center entries and time in the center, open field test” value (C57BL/6J mice; dexamethasone 5 mg/kg, 9g 30 mg/kg i.p.) was “restored the number of center entries and time in the center to intact levels” and the Suppression of phagocytosis ([1]; after 24-h of incubation, data not shown) was “not”. For the same molecule, the “Decrease of the mean number of phagocytosed yeast cells” value ([1]; after 72 h of incubation) was 16%, the “Macrophage phagocytic activity (in words)” value ([1]; after 72 h of incubation) was “preserved macrophage phagocytic activity” and the Macrophage spreading ([1]; yeast-stimulated, visually scored) was “reduced it to a nearly unstimulated level”.
